The target in data set [1] is human Mediator complex (human).
The test system of data set [2] is p53 target genes in HCT116 cells. As to the kind of experiment: RNA-Seq / GSEA in HCT116 cells, p53 pathway genes. It counts as cell-based, human. The procedure:
To circumvent this issue, we used a well-tested electroporation protocol to enhance cell uptake of the bivalent peptide (see Methods). HCT116 cells were evaluated either in the presence of bivalent peptide or vehicle (water), with or without Nutlin-3a (FIG. 3A, B). Nutlin-3a is a small molecule that activates and stabilizes p53 by inhibiting MDM2, a repressor of p53. […] After 3 h Nutlin-3a treatment (or DMSO control, ±bivalent peptide), nuclear RNA was isolated and biological replicate RNA-Seq libraries were prepared (FIG. 9A; Table 1).
A confounding issue with these experiments was that cellular uptake of the bivalent peptide could not be accurately measured and could potentially vary from experiment-to-experiment. To assess this possibility more thoroughly, we completed an additional round of RNA-Seq experiments in control vs. Nutlin-treated HCT116 cells (FIG. 9B; Table 1). These additional experiments (RNA-Seq experiment 2) were completed with a slightly modified protocol that included treatment in serum-free media as an effort to enhance peptide uptake. Importantly, the data from RNA-Seq experiment 2 (biological triplicate; FIG. 10) were consistent with the first series of biological replicates (RNA-Seq experiment 1; FIG. 3C-E) and in each case, repression of p53-dependent transcription by the bivalent peptide tracked with Nutlin induction levels (FIG. 9CE). Nutlin-induced activation of p53 target genes was inhibited in the presence of the bivalent peptide, providing further evidence that the bivalent peptide blocks p53 response in cells. However, the scope and magnitude of the effect was reduced in this second, independent set of RNA-Seq experiments (e.g. compare FIG. 3C, D & FIG. 10C, D). This broadly consistent but variable magnitude effect can also be seen from RNA-Seq reads at specific p53 target genes (RNA-Seq experiment 1, FIG. 4A, B; RNA-Seq experiment 2, FIG. 4C, D). The overall p53 response to Nutlin-3a was reduced in RNA Seq experiment 2 (GSEA p53 pathway NES=2.76 in RNA-Seq experiment 1 vs. NES=1.59 in RNASeq experiment 2), which therefore reduced the transcriptional impact of the bivalent peptide. However, we cannot rule out variable cellular uptake of the bivalent peptide as a contributing factor.
Electroporation of bivalent peptide into HCT116 cells (RNA-Seq experiment 1): Two 6-well plates (HCT116 cells) were grown to about 80% confluency. Cells were then trypsinized, washed with PBS, and resuspended in 150 μL Neon Buffer R. The cells were then split into two groups: No peptide and 10 μM peptide. The cells were then drawn into a 10 μL Neon pipet tip, electroporated and ejected into 2 mL of McCoy's 5A media without antibiotic. For each experiment, two cell electroporation aliquots were added to media containing either 0.1% DMSO (control) or 10 μM Nutlin-3a (in DMSO, to a final concentration of 0.1%). For wells containing cells electroporated with peptide, an additional 200 nM peptide was added to the well to allow for peptide uptake during the experiment. The 6-well plate was then placed back at 37° C. for 3 hours. After 3 hours, cells were scraped from the plates, transferred to a 15 mL conical vial, pelleted at 1,000×g, and washed in 10 mL phosphate buffered saline (PBS) solution. To isolate the nuclei, cells were resuspended in 10 mL lysis buffer (10 mM Tris-HCl, pH 7.4, 2 mM MgCl2, 3 mM CaCl2), 0.5% NP-40, 10% glycerol) and thoroughly mixed. The nuclei were spun down at 1,000×g for 10 minutes, the lysis buffer was removed, and 1 mL of TRIzol was added. The nuclear RNA was isolated as described in the TRIzol instructions, except an additional phenol/chloroform extraction and chloroform-only extraction were performed to reduce contaminants. RNA was precipitated and washed twice with 75% ethanol to further remove contaminants. The RNA was then converted to cDNA using the High Capacity cDNA kit from Thermo Fisher Scientific. […]

The subject of data set [3] is pol II occupancy at the p21 locus. The experiment in a line: ChIP of RNA polymerase II occupancy at CDKN1A (p21). To be noted: 3 h post-Nutlin, Ser5-phosphorylated pol II ChIP. The class given is cell-based. The text has this:
FIGS. 13A-B. Summary of ChIP experiments, showing that RNA polymerase II occupancy at the p53 target gene CDKN1A (p21) is reduced in cells treated with the bivalent peptide (peptide). A) Time course following Nutlin induction, to determine ideal time point to probe pol II occupancy at the p21 locus. […] However, pol II occupancy is reduced in cells treated with the bivalent peptide. […] Pol II phosphorylated at serine-5 of its C-terminal domain was used for ChIP analysis, because this is a proxy for initiating pol II at gene promoters (start sites). Data represent biological triplicates. Similar results were observed genome-wide, using ChIP-seq, although the timing of induction across p53 target genes will vary (data not shown).

Data set [4] concerns basal transcription. The experiment in a line: In vitro transcription on naked DNA templates, basal (no activator). The class given is biochemical, human. To be noted: no GAL4-p53, naked DNA templates. The text has this: To screen peptides for the ability to selectively block p53-dependent transcription, we required an assay that enabled p53-dependent activation but that could also support basal (i.e. activator-independent) transcription. The present inventors had previously established an in vitro transcription assay (using highly purified human factors (FIG. 1A). A key feature of this assay was that both activated and basal transcription could be reconstituted on naked DNA templates (i.e. DNA templates not assembled into chromatin). To adapt this assay for purposes of measuring basal vs. p53-activated transcription, we generated templates with Gal4 DNA binding sites upstream of the adenovirus major late promoter sequence (FIG. 5A, B). Upon titration of a Gal4 DNA Binding Domain (DBD)-p53 Activation Domain (AD; residues 1-70) fusion protein into this system, we observed pol II-dependent transcription that was dependent on p53AD and Mediator (FIG. 5C). Reactions containing Gal4-p53AD generally produced about two- to four-fold more transcripts compared to reactions with no activator (FIG. 5C). Because experiments without Gal4-p53AD produced a low level of “basal” transcription that could be quantitated, this system allowed assessment of both p53-activated and basal transcription. […]

The test system of data set [5] is cells. To be noted: prior analysis; cited from earlier work.

Bridge positions count the residues as written; N and C are the ends. Square brackets hold non-standard residues; d marks the D form. Peptide text beside a SMILES is read from it. R8 = C=CCCCCCC[C@@](C)(N)C(=O)O; S5 = C=CCCC[C@](C)(N)C(=O)O

GST-VP16AD (residues 411-490), sequence (P08515 1-218, tags or fused parts left off): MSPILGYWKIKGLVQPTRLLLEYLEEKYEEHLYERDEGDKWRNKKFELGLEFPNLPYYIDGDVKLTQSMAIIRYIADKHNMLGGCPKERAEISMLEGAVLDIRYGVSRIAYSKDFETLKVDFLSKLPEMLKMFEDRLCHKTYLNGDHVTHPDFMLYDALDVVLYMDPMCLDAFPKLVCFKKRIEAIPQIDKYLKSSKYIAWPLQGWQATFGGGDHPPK

In the case of “GST-VP16AD (residues 411-490) (from UniProt P08515 1-218; P06492 411-490)”, in data set [1], the fold change of Mediator-bound VP16 with bivalent peptide vs. without was found to be 1.67 fold.

Turning to `COc1ccc(C2=N[C@@H](c3ccc(Cl)cc3)[C@@H](c3ccc(Cl)cc3)N2C(=O)N2CCNC(=O)C2)c(OC(C)C)c1` [Nutlin-3a, reference compound], the “expression of p53 target genes” value in data set [2] (Nutlin-3a 10 μM, 3 h, HCT116) is given as “induced expression of p53 target genes”. In addition, the figures for the “GSEA p53 pathway NES, Nutlin response without peptide” value in data set [2] (RNA-Seq experiment 1) and in data set [2] (RNA-Seq experiment 2) were 2.76 and 1.59, respectively. The “pol II occupancy at the p21 locus” value in data set [3] is listed as “strongly induced pol II at the p21 locus”.

Consider “BP1.5: N-acetylated hydrocarbon-stapled penta-arg p53AD1 mimic, SEQ ID NO. 5 RRETFZDRWKRLXRN”, for which the “effect on basal transcription, initial screen” value in data set [4] (5 μM peptide) is “did not affect basal transcription”. Besides, the “effect on basal transcription, follow-up experiments” value in data set [4] is “negatively affected basal transcription to some degree”.

With `CC(=O)N[C@@H](CCCNC(=N)N)C(=O)N[C@@H](CO)C(=O)N[C@@H](CCC(N)=O)C(=O)N[C@@H](CCC(=O)O)C(=O)N[C@@H](CCCNC(=N)N)C(=O)N[C@@H](Cc1ccccc1)C(=O)N[C@]1(C)CCCCCCC=CCCC[C@@](C)(C(=O)N[C@@H](CCCNC(=N)N)C(=O)N[C@@H](CCCNC(=N)N)C(N)=O)NC(=O)[C@H](CC(C)C)NC(=O)[C@H](CCCNC(=N)N)NC(=O)[C@H](CCCCN)NC(=O)[C@H](Cc2c[nH]c3ccccc23)NC(=O)[C@H](CC(C)C)NC(=O)[C@H](CC(=O)O)NC1=O` [BP1.4] (Ac-RSQERF[R8]DLWKRL[S5]RR-NH2; staple 7-14; C-terminus assumed), the cellular uptake result in data set [5] was “not effectively taken up by cells”.
